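The compound was tested at five concentrations on cells cultured in 96-well plates, with a 48-hour exposure period. TGI: concentration producing complete growth inhibition.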
Legend:
Assay in all cases: NCI tumour cell line growth inhibition, 48 h
SR leukemia = tested on: SR leukemia
SNB-75 CNS = tested on: SNB-75 CNS
DLD-1 colon = tested on: DLD-1 colon
HCT-15 colon = tested on: HCT-15 colon
SK-OV-3 ovarian = tested on: SK-OV-3 ovarian
OVCAR-5 ovarian = tested on: OVCAR-5 ovarian
OVCAR-8 ovarian = tested on: OVCAR-8 ovarian
UACC-62 melanoma = tested on: UACC-62 melanoma
MALME-3M melanoma = tested on: MALME-3M melanoma
M14 melanoma = tested on: M14 melanoma
DMS 273 small cell lung = tested on: DMS 273 small cell lung
A498 renal = tested on: A498 renal
HOP-18 NSCLC = tested on: HOP-18 NSCLC
KM12 colon = tested on: KM12 colon
UO-31 renal = tested on: UO-31 renal
SF-295 CNS = tested on: SF-295 CNS
NCI-H522 lung = tested on: NCI-H522 lung
U251 CNS = tested on: U251 CNS
OVCAR-3 ovarian = tested on: OVCAR-3 ovarian
SF-268 CNS = tested on: SF-268 CNS
MOLT-4 leukemia = tested on: MOLT-4 leukemia
IGROV1 ovarian = tested on: IGROV1 ovarian
COLO 205 colon = tested on: COLO 205 colon
K-562 leukemia = tested on: K-562 leukemia
CAKI-1 renal = tested on: CAKI-1 renal
LXFL 529 NSCLC = tested on: LXFL 529 NSCLC
TK-10 renal = tested on: TK-10 renal
UACC-257 melanoma = tested on: UACC-257 melanoma
HOP-62 NSCLC = tested on: HOP-62 NSCLC
RXF 393 renal = tested on: RXF 393 renal
RPMI-8226 leukemia = tested on: RPMI-8226 leukemia
SK-MEL-2 melanoma = tested on: SK-MEL-2 melanoma
A549 NSCLC = tested on: A549 NSCLC
KM20L2 colon = tested on: KM20L2 colon
HCC-2998 colon = tested on: HCC-2998 colon
NCI-H460 lung = tested on: NCI-H460 lung
HOP-92 NSCLC = tested on: HOP-92 NSCLC
EKVX NSCLC = tested on: EKVX NSCLC
OVCAR-4 ovarian = tested on: OVCAR-4 ovarian
ACHN renal = tested on: ACHN renal
NCI-H226 lung = tested on: NCI-H226 lung
786-0 renal = tested on: 786-0 renal
SNB-78 CNS = tested on: SNB-78 CNS
HL-60(TB) leukemia = tested on: HL-60(TB) leukemia
XF 498 CNS = tested on: XF 498 CNS
SW-620 colon = tested on: SW-620 colon
RXF-631 renal = tested on: RXF-631 renal
DMS 114 small cell lung = tested on: DMS 114 small cell lung
NCI-H23 lung = tested on: NCI-H23 lung
SF-539 CNS = tested on: SF-539 CNS
SK-MEL-5 melanoma = tested on: SK-MEL-5 melanoma
M19-MEL melanoma = tested on: M19-MEL melanoma
HCT-116 colon = tested on: HCT-116 colon
HT29 colon = tested on: HT29 colon
SN12C renal = tested on: SN12C renal
SNB-19 CNS = tested on: SNB-19 CNS
LOX IMVI melanoma = tested on: LOX IMVI melanoma
CCRF-CEM leukemia = tested on: CCRF-CEM leukemia
SK-MEL-28 melanoma = tested on: SK-MEL-28 melanoma

Cc1ccc(S(=O)(=O)NC2(C=O)CCC(C(C)(C)C)CC2)cc1 (centres undefined)
TGI (SR leukemia): 36.9 µM | TGI (SNB-75 CNS): > 100 µM | TGI (DLD-1 colon): > 100 µM | TGI (HCT-15 colon): > 100 µM | TGI (SK-OV-3 ovarian): > 100 µM | TGI (OVCAR-5 ovarian): > 100 µM | TGI (OVCAR-8 ovarian): > 100 µM | TGI (UACC-62 melanoma): > 100 µM | TGI (MALME-3M melanoma): > 100 µM | TGI (M14 melanoma): > 100 µM | TGI (DMS 273 small cell lung): > 100 µM | TGI (A498 renal): > 100 µM | TGI (HOP-18 NSCLC): > 100 µM | TGI (KM12 colon): 84.5 µM | TGI (UO-31 renal): > 100 µM | TGI (SF-295 CNS): 94.9 µM | TGI (NCI-H522 lung): 54.9 µM | TGI (U251 CNS): > 100 µM | TGI (OVCAR-3 ovarian): > 100 µM | TGI (SF-268 CNS): > 100 µM | TGI (MOLT-4 leukemia): 41.3 µM | TGI (IGROV1 ovarian): > 100 µM | TGI (COLO 205 colon): 73.3 µM | TGI (K-562 leukemia): 70.8 µM | TGI (CAKI-1 renal): > 100 µM | TGI (LXFL 529 NSCLC): > 100 µM | TGI (TK-10 renal): > 100 µM | TGI (UACC-257 melanoma): > 100 µM | TGI (HOP-62 NSCLC): > 100 µM | TGI (RXF 393 renal): > 100 µM | TGI (RPMI-8226 leukemia): 46.3 µM | TGI (SK-MEL-2 melanoma): > 100 µM | TGI (A549 NSCLC): > 100 µM | TGI (KM20L2 colon): 75.4 µM | TGI (HCC-2998 colon): > 100 µM | TGI (NCI-H460 lung): > 100 µM | TGI (HOP-92 NSCLC): 99.8 µM | TGI (EKVX NSCLC): > 100 µM | TGI (OVCAR-4 ovarian): > 100 µM | TGI (ACHN renal): > 100 µM | TGI (NCI-H226 lung): > 100 µM | TGI (786-0 renal): > 100 µM | TGI (SNB-78 CNS): > 100 µM | TGI (HL-60(TB) leukemia): 42.9 µM | TGI (XF 498 CNS): > 100 µM | TGI (SW-620 colon): > 100 µM | TGI (RXF-631 renal): > 100 µM | TGI (DMS 114 small cell lung): 62.8 µM | TGI (NCI-H23 lung): 85.6 µM | TGI (SF-539 CNS): > 100 µM | TGI (SK-MEL-5 melanoma): 47.2 µM | TGI (M19-MEL melanoma): 73.8 µM | TGI (HCT-116 colon): 68.8 µM | TGI (HT29 colon): > 100 µM | TGI (SN12C renal): 68.7 µM | TGI (SNB-19 CNS): > 100 µM

COC(=O)C1CCC2(CC1)NC(=O)NC2=O (centres undefined)
TGI (SR leukemia): > 100 µM | TGI (SNB-75 CNS): > 100 µM | TGI (DLD-1 colon): > 100 µM | TGI (SK-OV-3 ovarian): > 100 µM | TGI (LOX IMVI melanoma): > 100 µM | TGI (OVCAR-5 ovarian): > 100 µM | TGI (OVCAR-8 ovarian): > 100 µM | TGI (UACC-62 melanoma): > 100 µM | TGI (MALME-3M melanoma): > 100 µM | TGI (M14 melanoma): > 100 µM | TGI (DMS 273 small cell lung): > 100 µM | TGI (A498 renal): > 100 µM | TGI (HOP-18 NSCLC): > 100 µM | TGI (KM12 colon): > 100 µM | TGI (UO-31 renal): > 100 µM | TGI (CCRF-CEM leukemia): > 100 µM | TGI (SF-295 CNS): > 100 µM | TGI (NCI-H522 lung): > 100 µM | TGI (U251 CNS): > 100 µM | TGI (OVCAR-3 ovarian): > 100 µM | TGI (SF-268 CNS): > 100 µM | TGI (MOLT-4 leukemia): > 100 µM | TGI (IGROV1 ovarian): > 100 µM | TGI (COLO 205 colon): > 100 µM | TGI (K-562 leukemia): > 100 µM | TGI (CAKI-1 renal): > 100 µM | TGI (LXFL 529 NSCLC): > 100 µM | TGI (TK-10 renal): > 100 µM | TGI (UACC-257 melanoma): > 100 µM | TGI (HOP-62 NSCLC): > 100 µM | TGI (RXF 393 renal): > 100 µM | TGI (RPMI-8226 leukemia): > 100 µM | TGI (SK-MEL-2 melanoma): > 100 µM | TGI (A549 NSCLC): > 100 µM | TGI (KM20L2 colon): > 100 µM | TGI (HCC-2998 colon): > 100 µM | TGI (NCI-H460 lung): > 100 µM | TGI (HOP-92 NSCLC): > 100 µM | TGI (EKVX NSCLC): > 100 µM | TGI (OVCAR-4 ovarian): > 100 µM | TGI (SK-MEL-28 melanoma): > 100 µM | TGI (ACHN renal): > 100 µM | TGI (NCI-H226 lung): > 100 µM | TGI (786-0 renal): > 100 µM | TGI (SNB-78 CNS): > 100 µM | TGI (HL-60(TB) leukemia): > 100 µM | TGI (XF 498 CNS): > 100 µM | TGI (SW-620 colon): > 100 µM | TGI (RXF-631 renal): > 100 µM | TGI (DMS 114 small cell lung): > 100 µM | TGI (NCI-H23 lung): > 100 µM | TGI (SF-539 CNS): > 100 µM | TGI (SK-MEL-5 melanoma): > 100 µM | TGI (M19-MEL melanoma): > 100 µM | TGI (HCT-116 colon): > 100 µM | TGI (HT29 colon): > 100 µM | TGI (SN12C renal): > 100 µM | TGI (SNB-19 CNS): > 100 µM

— PubChem BioAssay (NCI)
